The results in this text go back to PubChem BioAssay (NCI).

Holding throughout (assay): inhibition of tumour cell growth, NCI panel, 48 h
The test system of test [1] is NCI-H23 lung.
For test [2], the system named is OVCAR-3 ovarian.
Test [3] has as its system RXF 393 renal.
The subject of test [4] is MDA-MB-231 breast.
The subject of test [5] is ACHN renal.
Test [6] deals with HL-60(TB) leukemia.
The subject of test [7] is CAKI-1 renal.
For test [8], the system named is UACC-257 melanoma.
The test system of test [9] is UACC-62 melanoma.
Test [10] has as its system OVCAR-8 ovarian.
Test [11] deals with IGROV1 ovarian.
Test [12] concerns SR leukemia.

Where “and” joins values, the source holds several entries; their conditions need not be identical. Identical values can stand only once.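 Grown in 96-well plates, cells were treated for 48 hours with each compound at five concentrations. Insufficient inhibition: endpoint recorded as highest concentration tested. GI50: concentration for 50% inhibition of growth. TGI marks complete inhibition of growth.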

For the compound `Cc1ccc(C(=O)Nc2ccc(CP(=O)(O)O)cc2)cc1NC(=O)c1cccc(NC(=O)Nc2cccc(C(=O)Nc3cc(C(=O)Nc4ccc(CP(=O)(O)O)cc4)ccc3C)c2)c1`, the TGI in test [1], in test [2], in test [3], in test [4], in test [5] and in test [6] was above 100 µM each time. In addition, the TGI in [7], in test [8], in [9], in test [10] and in test [11] was above 100 µM in each case.
On to `COC1C=CC23c4cc5c(cc4C(O)OC2CN(C)C3C1)OCO5` (centres undefined), for which the TGI in [1] is 27.4 µM; in test [2], 5.8 µM; in test [5], 10.1 µM; in test [6], 3.17 µM; in test [12] it was 4.59 µM; in test [7], 24.8 µM. In addition, the TGI was found to be 7.3 µM in [8], 58.8 µM in test [9], 9.2 µM in test [10] and 22.3 µM in test [11].
`CC1=CC(=O)N(n2c(C)n[nH]c2=O)C1=O`: the TGI in test [1], in test [2], in test [3], in test [4], in test [5] and in test [12] was above 100 µM each time. The TGI in test [7], in [8], in [9], in test [10] and in test [11] was above 100 µM each time.
As to `O=C(O[C@H](/C=C/c1ccccc1)P1(=O)N(Cc2ccccc2)[C@@H]2CCCC[C@H]2N1Cc1ccccc1)c1ccccc1`, the TGI was 7.43 µM in [1]; 94.3 µM in test [2]; 21 µM in test [4]; above 100 µM in test [5]; above 100 µM in test [6]; above 100 µM in test [12]. Moreover, the TGI in [7] is 6.93 µM; in [8], above 100 µM; in test [9], 40 µM; in test [10] it was above 100 µM; in test [11] it was 15.8 µM.
Turning to `C(=Nc1ccc(-c2nc3ccccc3s2)cc1)c1ccco1`, the TGI in test [1], in test [2], in test [3], in test [5], in test [12] and in [7] was above 100 µM in each case. Further, the TGI in test [8], in [9], in [10] and in test [11] was above 100 µM throughout.
With `C[C@]12CC/C(=N\O)C=C1CC[C@@H]1[C@@H]2CC[C@]2(C)C(=N/O)/C(=C/c3cccnc3)C[C@@H]12`, the TGI is above 100 µM in test [1]; 56.2 µM in [4]; 73.4 µM in [5]; 4.12 µM in [6]; 57.2 µM in [8]; 10.4 µM in [9]. Also, the TGI is 80.3 µM in [10] and above 100 µM in test [11].
As for `c1ccc2c(c1)CCCN1CCc3ccccc3C21` (centres undefined), the TGI in test [1], in test [2], in [4], in [5], in test [6] and in test [12] was above 100 µM each time. Also, the TGI in test [7], in test [8], in test [9], in test [10] and in [11] was above 100 µM in each case.
Consider `OCc1ccccc1C1CSCSC1`, for which the TGI in test [2], in [3], in test [5], in [6], in test [8] and in test [9] was above 100 µM each time. The same compound showed a TGI in test [10] above 100 µM.
For the compound `Cc1cc2cccc(Cl)c2nc1C(=O)c1ccccc1`, the TGI in test [1], in [2], in [3], in [5], in test [12] and in [7] was above 100 µM in each case. The TGI in test [8] is 66.9 µM; in test [9] it was above 100 µM; in test [10], above 100 µM; in test [11], above 100 µM.
`CC(C)=CC1C(C(=O)O)C1(C)C` (centres undefined): the TGI in [1], in [2], in test [3], in test [6], in [7] and in test [8] was above 750 µM throughout. Moreover, the TGI in [9], in test [10] and in [11] was above 750 µM in each case.
Turning to `CC(=O)Nc1ccc(Cl)c(Cl)c1`, the TGI in test [1], in test [2], in test [3], in [5], in test [12] and in test [8] was above 100 µM in each case. For the same compound, the TGI in [9], in test [10] and in test [11] was above 100 µM throughout.
In the case of `O=c1nc2c(c(-c3cccc(Cl)c3)[nH]1)COC/C2=C\c1cccc(Cl)c1`, the TGI in [1], in [2], in test [3], in test [4], in [5] and in test [12] was above 100 µM each time. For the same compound, the TGI in test [7], in test [8], in [9], in test [10] and in test [11] was above 100 µM throughout.
`O=C1NC(=S)NC(=O)C1C(c1ccccc1[N+](=O)[O-])C1C(=O)NC(=S)NC1=O`: the TGI in [1], in test [2], in test [3], in test [4], in test [5] and in test [6] was above 100 µM throughout. The TGI in [7], in test [8], in [9] and in test [10] was above 100 µM in each case.
Consider `CC(C)c1c(P(=O)(c2ccccc2)c2ccccc2)n(C)c2ccccc12`, for which the TGI is above 100 µM in test [1]; above 100 µM in test [2]; above 100 µM in test [4]; above 100 µM in test [5]; 96.9 µM in test [6]; above 100 µM in test [12]. Moreover, the TGI in [8] and in [10] was above 100 µM in each case.
For `N#CSCc1cccc(Nc2cc(=O)[nH]c(=O)[nH]2)c1`, the TGI in [1], in [2], in test [3], in test [4], in test [5] and in [7] was above 100 µM in each case. Also, the TGI in test [8], in test [9], in [10] and in [11] was above 100 µM throughout.
With `COC(=O)C1CC(C=[N+](C)C)=C(SC)N1` (centres undefined), the TGI in test [1], in [2], in [3], in [4], in [5] and in [12] was above 100 µM in each case. In addition, the TGI in [7], in test [8], in [9], in test [10] and in test [11] was above 100 µM throughout.
As for `O=C1C(Cl)N(c2ccccc2)C1c1c[nH]c2ccccc12` (centres undefined), the TGI in test [1], in test [2], in test [3], in test [6], in [12] and in [8] was above 100 µM in each case. The TGI in test [9], in test [10] and in [11] was above 100 µM in each case.
Turning to `O=C(OCc1ccccc1)OOC(=O)OCc1ccccc1`, the TGI in [1], in test [2], in test [3], in test [5], in test [6] and in test [12] was above 100 µM throughout. Also, the TGI in test [7], in test [8], in test [9] and in test [11] was above 100 µM each time.
Consider `COc1ccc(CNc2nc3ccc(C(F)(F)F)cc3nc2-c2ccccc2)cc1OC`, for which the TGI in [1], in test [2], in [3], in test [5], in test [6] and in test [12] was above 100 µM each time. Also, the TGI in test [8], in test [9] and in [10] was above 100 µM throughout.
Turning to `c1ccc(N=c2snc(-c3ccccc3)s2)cc1`, the TGI in test [3], in test [5], in [6], in test [12], in [7] and in test [8] was above 100 µM each time. For the same compound, the TGI in test [9], in test [10] and in test [11] was above 100 µM throughout.
Regarding `CC(C)CCNC(=O)c1ccc(CNC(=O)/C=C/c2ccc(OCc3ccccc3)cc2)cc1`, the TGI in test [1], in test [2], in test [3], in [4], in [5] and in test [12] was above 100 µM each time. For the same compound, the TGI in test [7], in [8], in [9] and in [10] was above 100 µM in each case.
Take `Cc1nc(Cl)c(CBr)c(Cl)n1`: the TGI amounted to 3.69 µM in test [1]; 1.97 µM in test [2]; 5.03 µM in test [3]; 3.67 µM in [4]; 3.15 µM in test [5]; 0.554 µM in [12]. Besides, the TGI in test [7] is 4.01 µM; in test [8], 3.37 µM; in test [9] it was 3.46 µM; in [10], 6.47 µM; in [11], 3.39 µM.
With `Cc1cccc(N(CCC#N)S(=O)(=O)c2ccccc2)c1`, the TGI in test [1], in test [2], in test [4], in test [5], in test [6] and in test [12] was above 100 µM in each case. Besides, the TGI in test [7], in test [8], in test [9], in [10] and in test [11] was above 100 µM in each case.
Regarding `CC(C)/C(Cl)=N\OC(=O)NNc1ccccc1`, the TGI was above 100 µM in [1]; above 100 µM in test [2]; above 100 µM in test [3]; above 94.2 µM in test [4]; 34.1 µM in [5]; 28.2 µM in test [7]. The TGI in test [8], in [9], in test [10] and in test [11] was above 100 µM each time.
With `O=C(O)CNC(=O)c1ccc([As](=O)(O)O)cc1`, the TGI in test [1], in test [2], in test [3], in test [4], in [5] and in [6] was above 100 µM in each case. Besides, the TGI in test [7], in [9], in test [10] and in test [11] was above 100 µM in each case.
For the compound `COc1cc([C@@H]2c3cc4c(cc3C[C@H]3COC(=O)[C@@H]32)OCO4)cc(OC)c1OC`, the GI50 in test [1] is 0.00428 µM; in test [2], 0.00424 µM and 0.00911 µM; in test [3] it was 0.00723 µM and 0.0157 µM; in [6], 0.00202 µM; in test [7], 0.00463 µM; in test [9] it was 0.0028 µM. In addition, the figures for the GI50 in test [10] and in [11] were 0.00407 µM and 0.00618 µM, respectively. The TGI was 3.52 µM in test [1]; 0.0745 µM in test [2]; above 50 µM in test [3]; 0.00526 µM and 0.0126 µM in [6]; 1.72 µM in test [7]; above 5 µM in [8]. Besides, the TGI in test [9] was above 50 µM; in test [10], 0.324 µM; in test [11], above 50 µM.
`CC(C)(CO)N1C(=O)c2ccccc2C1(O)c1ccc(Cl)cc1` (centres undefined): the TGI in [1], in test [2], in test [3], in test [4], in [5] and in test [6] was above 100 µM throughout. For the same compound, the TGI in [7], in [8], in [9], in test [10] and in test [11] was above 100 µM each time.
